One assay has as its system HCV pseudoparticles. Nature of the assay: HCV pseudoparticle (HCVpp) entry assay in Huh7 hepatoma cells, luciferase readout. In kind it is cell-based, hepatitis C virus. The following applies: for HCVpp % inh: peptide library screen, first screened at 100 ug/ml, cell entry inhibition vs uninhibited control; for luciferase units, HCV entry: duplicates. Put shortly:
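Pseudoparticles carrying HCV E1/E2 on an HIV luciferase backbone were produced in 293T cells; peptide was pre-incubated 1 h at 37 °C with Huh7 cells, then virus added and luciferase read after 72 h. Dose-response used 10-point 3-fold titration from 100 ug/ml; envelope-less particles controlled non-specific entry.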

The test system of assay [1] is amphotropic murine leukemia virus. Kind of assay: AMLV pseudotyped virus entry counter-screen, same infection protocol. In kind it is cell-based. The conditions noted are these: for AMLVpp % inh: peptide library screen, cell entry inhibition vs uninhibited control; for luciferase units, AMLV entry: duplicates. Put shortly: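 Huh7 hepatoma cells pre-incubated with peptide 1 h at 37 °C, then infected with AMLV pseudotyped virus and cultured 72 h at 37 °C, 5% CO2 before luciferase read-out. Peptides screened at 100 ug/ml, then 10-point 3-fold titrations from 100 ug/ml.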

The mark [2] stands for this setting: 0.01371742 uM of peptide (three lines).

Several values for one entry are separate records, joined by “and”; a condition that tells them apart may be missing. Identical values can stand only once. Ends that are not written are not given here.

Take “R-F-G-V-P-T-Y-S-W-G-E-N-E-T-D-V [SEQ ID NO: 50]”: the HCVpp % inh in the assay on HCV pseudoparticles is 34%. Also, the AMLVpp % inh in assay [1] was determined as 33%.

On to “W-G-V-L-A-G-L-A-Y-Y-S-M-V-G-N-W [SEQ ID NO: 26]”, for which the HCVpp % inh in the assay with HCV pseudoparticles amounted to 50%. For the same substance, the AMLVpp % inh in assay [1] is 27%.

Regarding “R-H-E-T-V-Q-D-C-N-C-S-I-Y-P-G-H [SEQ ID NO: 18]”, the HCVpp % inh in the assay on HCV pseudoparticles was found to be 5%. In addition, in assay [1], the AMLVpp % inh is 17%.

As for “N-I-G-G-I-G-N-K-T-L-T-C-P-T-D-C [SEQ ID NO: 57]”, the HCVpp % inh in the assay with HCV pseudoparticles came to 39%. Moreover, the AMLVpp % inh in assay [1] stood at 20%.

Take “E-A-T-Y-T-K-C-G-S-G-P-W-L-T-P-R (EATYTKCGSGPWLTPR; HCV peptide) [SEQ ID NO: 60]”: in the assay on HCV pseudoparticles, the HCVpp % inh amounted to 13%. In addition, the AMLVpp % inh in assay [1] came out at 17%.

On to “I-T-Y-N-E-S-H-S-S-D-Q-R-P-Y-C-W [SEQ ID NO: 43]”, for which the HCVpp % inh in the assay on HCV pseudoparticles is −13%. Also, in assay [1], the AMLVpp % inh was determined as 17%.

For “G-V-Y-H-V-T-N-D-C-S-N-A-S-I-V-Y [SEQ ID NO: 4]”, in the assay on HCV pseudoparticles, the HCVpp % inh is −23%. Moreover, the AMLVpp % inh in assay [1] is recorded as −6%.

For the substance “Y-E-V-R-N-V-S-G-V-Y-H-V-T-N-D-C [SEQ ID NO: 3]”, in the assay with HCV pseudoparticles, the HCVpp % inh is listed as 35%. Further, in assay [1], the AMLVpp % inh is reported as 18%.

Turning to “L-P-C-S-F-T-T-L-P-A-L-S-T-G-L-I (LPCSFTTLPALSTGLI; HCV peptide) [SEQ ID NO: 72]”, in the assay on HCV pseudoparticles, the HCVpp % inh is −2%. In addition, the AMLVpp % inh in assay [1] is on record as 20%.

Turning to “M-A-W-D-M-M-M-N-W-S-P-T-A-A-L-V (MAWDMMMNWSPTAALV; not fully specified (C-terminus); printed as M-A-W-D-M-M-M-N-W-S-P-T-A-A-L-V) [SEQ ID NO: 21]”, the HCVpp % inh in the assay with HCV pseudoparticles is 32%. Besides, the AMLVpp % inh in assay [1] is 3%.

For “V-D-G-G-T-Y-V-T-G-G-T-M-A-K-N-T [SEQ ID NO: 30]”, in the assay on HCV pseudoparticles, the HCVpp % inh is listed as 2%. Also, the AMLVpp % inh in assay [1] was −9%.

Turning to “R-I-P-Q-A-V-V-D-M-V-A-G-A-H-W-G [SEQ ID NO: 24]”, in the assay with HCV pseudoparticles, the HCVpp % inh is listed as 25%. Moreover, the AMLVpp % inh in assay [1] is −2%.

As to “V-M-L-L-F-A-G-V-D-G-G-T-Y-V-T-G [SEQ ID NO: 29]”, in the assay on HCV pseudoparticles, the HCVpp % inh is −22%. Besides, the AMLVpp % inh in assay [1] worked out at 11%.

For the substance “N-T-L-G-I-T-S-L-F-S-P-G-S-S-Q-K [SEQ ID NO: 32]”, in the assay on HCV pseudoparticles, the HCVpp % inh worked out at 11%. In addition, the AMLVpp % inh in assay [1] is 2%.

Take “N-W-S-P-T-A-A-L-V-V-S-Q-L-L-R-I [SEQ ID NO: 22]”: in the assay on HCV pseudoparticles, the HCVpp % inh was found to be 54%. Further, the AMLVpp % inh in assay [1] is −11%.

For the substance “A-R-N-A-S-V-P-T-T-T-I-R-R-H-V-D [SEQ ID NO: 11]”, the HCVpp % inh in the assay with HCV pseudoparticles is listed as −26%. The AMLVpp % inh in assay [1] is recorded as 24%.

Turning to “T-C-G-G-P-P-C-N-I-G-G-I-C-N-K-T [SEQ ID NO: 56]”, the HCVpp % inh in the assay on HCV pseudoparticles amounted to 53%. In addition, the AMLVpp % inh in assay [1] worked out at 22%.

Regarding “A-A-L-C-S-A-M-Y-V-G-D-L-C-G-S-V [SEQ ID NO: 14]”, the HCVpp % inh with HCV pseudoparticles is 39%. Further, the AMLVpp % inh in assay [1] is given as −42%.

As for “G-S-G-P-W-L-T-P-R-C-L-V-H-Y-P-Y (GSGPWLTPRCLVHYPY; HCV peptide) [SEQ ID NO: 61]”, in the assay with HCV pseudoparticles, the HCVpp % inh is on record as −15%. Further, the AMLVpp % inh in assay [1] is reported as −8%.

With “C-W-H-Y-A-P-R-P-C-G-I-V-P-A-A-Q [SEQ ID NO: 45]”, the HCVpp % inh in the assay on HCV pseudoparticles is recorded as 63%. The AMLVpp % inh in assay [1] is on record as −8%.

Take “A-I-K-W-E-Y-V-L-L-F-L-L-L [SEQ ID NO: 98]”: the “% control (HCVpp entry), proline scanning” value with HCV pseudoparticles (0.1 nM of peptide (printed for three rows), two values per peptide and row) is 85 % control and 77 % control and 86 % control and 109 % control and 95 % control; in the assay with HCV pseudoparticles (0.3 nM of peptide, two values per peptide), 90 % control and 68 % control; with HCV pseudoparticles (1 nM of peptide, two values per peptide), 93 % control and 94 % control; in the assay on HCV pseudoparticles (3 nM of peptide, two values per peptide), 86 % control and 52 % control; in the assay with HCV pseudoparticles (10 nM of peptide, two values per peptide), 47 % control and 50 % control; in the assay with HCV pseudoparticles (30 nM of peptide, two values per peptide), 41 % control and 35 % control. Also, the “% control (HCVpp entry), proline scanning” value with HCV pseudoparticles (100 nM of peptide, two values per peptide) is 31 % control and 41 % control; in the assay with HCV pseudoparticles (300 nM of peptide, two values per peptide), 21 % control and 29 % control; in the assay on HCV pseudoparticles (10000 nM of peptide, two values per peptide), 27 % control and 24 % control. Moreover, the “luciferase units, HCV entry” value is 9747 luciferase units and 12623 luciferase units and 16027 luciferase units and 17299 luciferase units and 19079 luciferase units and 17575 luciferase units in the assay with HCV pseudoparticles (setting [2]); 6486 luciferase units and 6677 luciferase units in the assay with HCV pseudoparticles (0.04115226 uM of peptide); 4583 luciferase units and 6873 luciferase units in the assay on HCV pseudoparticles (0.1234568 uM of peptide); 2830 luciferase units and 5272 luciferase units in the assay on HCV pseudoparticles (0.3703704 uM of peptide); 3285 luciferase units and 2555 luciferase units in the assay on HCV pseudoparticles (1.111111 uM of peptide); 2647 luciferase units and 2056 luciferase units in the assay with HCV pseudoparticles (3.333333 uM of peptide). In addition, the “luciferase units, HCV entry” value was 2186 luciferase units and 2352 luciferase units with HCV pseudoparticles (10 uM of peptide); 1938 luciferase units and 2251 luciferase units with HCV pseudoparticles (30 uM of peptide). For the same substance, the “% of control at ~30 uM” value in the assay on HCV pseudoparticles (percentage of hepatitis C virus cellular entry at 30 μM peptide vs uninhibited control) stood at 10%. Further, the “luciferase units, AMLV entry” value in assay [1] (setting [2]) is 44492 luciferase units and 44531 luciferase units and 47406 luciferase units and 49869 luciferase units and 51067 luciferase units and 61382 luciferase units; in assay [1] (0.04115226 uM of peptide), 41463 luciferase units and 41610 luciferase units; in assay [1] (0.1234568 uM of peptide), 45455 luciferase units and 45030 luciferase units; in assay [1] (0.3703704 uM of peptide), 42748 luciferase units and 48710 luciferase units; in assay [1] (1.111111 uM of peptide), 45508 luciferase units and 44147 luciferase units; in assay [1] (3.333333 uM of peptide), 59984 luciferase units and 48300 luciferase units. The “luciferase units, AMLV entry” value in assay [1] (10 uM of peptide) is 111324 luciferase units and 59835 luciferase units; in assay [1] (30 uM of peptide), 81103 luciferase units and 70832 luciferase units.

For the substance “V-V-D-V-Q-Y-L-Y-G-I-G-S-A-V-V-S [SEQ ID NO: 75]”, the HCVpp % inh in the assay on HCV pseudoparticles came out at 39%. Also, the AMLVpp % inh in assay [1] was 44%.

For the origin of these results see patent US20100119483A1, “PEPTIDE VIRAL ENTRY INHIBITORS” (Schering Corporation, priority 2004, published 2010).
